Legend:
[1] = Solubility screening with standard cream-base excipients; format: physicochemical; details: Ph.Eur. terms, 15°C to 25°C
Description: A solubility screening with standard excipients for preparation of a cream base (glycerol monostearate 60, cetyl alcohol, MCTs, paraffin, macrogol-20-glycerol monostearate, propylene glycol and water) was performed.
The following procedure was used to prepare the samples for solubility screen: • 1. Weigh out the API • 2. Add individual excipient (both solid and liquid excipients) • 3. Slurry either by roller at RT if liquid excipient, or by shaker at 60°C if the excipient was solid • 4. Shake or sonicate occasionally • 5. Check solubility visually, if API not dissolved, add more excipient • 6. Repeat steps 3 to 5 • 7. Samples prepared in steps 1 through 6 were centrifuged and removed from the top for HPLC. • 8. Dilute each sample to 1 mL. Only samples fully dissolved were checked by HPLC.
In the general notice of Ph.Eur. in statements of solubility the terms used have the following significance, referred to at a temperature between 15°C and 25°C.

[2] = Simultaneous Thermal Analysis (STA = TGA + DTA); format: physicochemical; details: heated 10°C/min from 30°C to 300°C, nitrogen purge
Description: Simultaneous Thermal analysis (STA = TGA (Thermogravimetric Analysis) + DTA (Differential Thermal Analysis)) was performed in order to test the stability of N-(3 -methyl-2-oxo-2,3-dihydrobenzo[d]oxazol-5-yl)dodecanamide (hereinafter "the API") while heating. Approximately 10 mg of the sample was weighed into a ceramic crucible and placed into the chamber of a Perkin-Elmer STA 600 TGA/DTA analyzer at ambient temperature. The sample was then heated at a rate of 10°C/min from 30°C up to 300°C during which time the change in weight was monitored as well as DTA signal. The purge gas used was nitrogen at a flow rate of 20 cm^3/min.

[3] = Particle size distribution of the API by laser diffraction, pre and post jet-mill micronization; format: physicochemical
From the text: A Sturtevant qualification micronizer was used to reduce the particle size of the API. The mill was operated with tangential flow (i.e. the nitrogen supply and drug are fed in the same direction in the milling chamber). The material of API as received was fed into the jet mill using a Venturi feed system, where air was used to draw the feed material into the milling chamber. A product filter bag was affixed to the outlet of the mill, through which the exhausts and the milled drug substance collects. The milling conditions were set as follows: Grind gas: Dry nitrogen gas; Grind pressure: 80 psi; Feed pressure: 80 psi; Room conditions: Ambient.
A representative sample, dispersed at an adequate concentration in a suitable liquid, is passed through the beam of a monochromatic light source, preferably from a laser. The light scattered by the particles at various angles is measured by a multi-element detector, and numerical values relating to the scattering pattern are then recorded for subsequent analysis. These numerical scattering values are then transformed, using an appropriate optical model and mathematical procedure, to yield the proportion of total volume to a discrete number of size classes forming a volumetric particle size distribution (e.g., dso describes a particle diameter corresponding to 50% of the cumulative undersize distribution, i.e. 50% of the particles have a diameter that is smaller than a threshold value).
The Particle Size Distribution was determined using Malvern Mastersizer MicroPlus particle size analyzer (Malvern Instruments, UK) and 1% (v/v) Tween 80 in deionized water was used as dispersant for this experiment. The equipment was turned on and the following conditions were set: Analysis Model: Polydisperse; Presentation Code: Frauenhofer (5$$D); Stirring speed: 10 o'clock dial position.
The equipment was left to warm up for about 1 hour and approximately 100 mL of the dispersant was added to the sample dispersion unit. Backgrounds were first measured using the dispersant. A fresh sample was prepared by adding -20 to 50 mg API into ∼2 to 3 mL of the dispersant and this was sonicated for ∼5 minutes. The sample was added dropwise into the sample dispersion unit while stirring the dispersant until a suitable obscuration value was achieved and the particle size distribution could be measured. A minimum of three measurements were made for the pre and post micronized samples.
Alternatively, the Malvern Mastersizer 2000 can be used for the determination of Particle Size Distribution. In this case water is used as dispersant.
For upscaling purposes, the micronization process was transferred to a jet mill AS200 (Hosokawa Alpine, Germany) on which the following experiments were performed. Dry nitrogen and air were used as grind gas in order to determine the gas which is more suitable for the micronization process.

[4] = Forced degradation studies; format: physicochemical
From the text: Solid samples and sample solutions of N-(3-methyl-2-oxo-2,3-dihydrobenzo[d]oxazol-5-yl)dodecanamide were exposed to stress agents for a defined period and influence of stress on the compound were studied (i.e. the degradation).
The evaluation was expressed as relative percent with respect to t=0 result of unstressed sample (mass balance, % of peak areas).
The stress conditions were adjusted in such way that the degradation varied in a range of approx. 1 to 5% generated impurities.
The following stress conditions were applied: acidic and basic hydrolysis, oxidizing agent, temperature and photolytic conditions.
Solid sample - daylight, laboratory condition (VIS) - exposure time 7 days Solid sample - UV 254 nm, laboratory condition (UV) - exposure time 6 days
Solid sample, 70°C - exposure time 6 days
Sample solution, 3% H2O2, laboratory condition - exposure time 24 h
Sample solution, 0.1M HCI, 50°C - exposure time 24 h
Sample solution, 0.01-0.05M NaOH, 25°C (1M NaOH, 50°C, 1 h) - exposure time 45 min

[5] = tested on: Human lymphoma U937 cells; test: Cellular uptake of [3H]-AEA; format: cell-based; details: U-937, 100 nM AEA, 15 min pre-incubation, 15 min at 37°C
Description: Human lymphoma U937 cells were grown in RPMI 1640 medium (Invitrogen, Basel, Switzerland) supplemented with 10% fetal bovine serum, […] fungizone (amphotericin B), 100 units/mL penicillin, 100 µg/mL streptomycin, and 2 mM L-glutamine (all from Invitrogen) and selected for the cellular AEA uptake assay. 2.5 x 10^6 cells were collected and suspended in 250 µL of RPMI 1640 medium (Invitrogen, Basel, Switzerland) at 37°C using glass silanized vials. Cells were pre-incubated 15 min at 37°C in presence of the test compound in a concentration range of 10^-11 - 10^-5 M or in presence of the same amount (5 µL) of vehicle control (DMSO). Then a mixture of 0.5 nM [^3H]-AEA (60 Ci/mmol) (American Radiolabeled Chemicals, Inc., San Louis, MO, US) and 99.5 nM of nonradioactive AEA (Tocris Cookson Ltd., Bristol, UK) resulting in a final concentration of 100 nM AEA was added and samples were incubated at 37°C for another 15 minutes. The reaction was stopped by rapid filtration over UniFilter®-96 GF/C (Perkin Elmer, Boston MA, US) pre-soaked with PBS 0.25% BSA (w/v). […] Radioactivity was measured using a Perkin Elmer 1450 Microbeta TRILUX liquid scintillation counter. Results were expressed as % of AEA uptake versus cells treated with solvent and the EC50 and IC50 values were calculated from the sigmoidal curves, which were generated using the GraphPad Prism 5.0 (GraphPad Software, San Diego, CA, US).

[6] = Forced degradation studies; format: physicochemical; details: 0.05M NaOH, 5 min, room temperature
[7] = first batch (5 g), post micronization, mean ± SD
[8] = first batch (5 g), pre micronization, mean ± SD
[9] = second batch (200 g), post micronization, mean ± SD
[10] = second batch (200 g), pre micronization, mean ± SD

## CCCCCCCCCCCC(=O)Nc1ccc2oc(=O)n(C)c2c1 [API, N-(3-methyl-2-oxo-2,3-dihydrobenzo[d]oxazol-5-yl)dodecanamide]
[1]; in MCTs
  solubility: Very slightly soluble (from 1,000 to 10,000)
[1]; in propylene glycol
  solubility: Very slightly soluble (from 1,000 to 10,000)
[1]; in water
  solubility: Practically insoluble (more than 10,000)
[2]
  temperature up to which the material remained stable: ~190 °C
[3]; 150 g batch, jet mill AS200, normal air as grind gas, post micronization
  d90: 7.43 µm
[3]; 200 g batch, jet mill AS200, dry nitrogen as grind gas, post micronization
  d90: 8.92 µm
[3]; [7]
  d10: 1.11±0.05 µm
  d50: 2.97±0.05 µm
  d90: 6.76±0.36 µm
[3]; [8]
  d10: 7.53±1.55 µm
  d50: 33.71±18.61 µm
  d90: 106.06±56.69 µm
[3]; jet mill AS200, batch size 0.913 kg
  d90: 4.8 µm
[3]; jet mill AS200, batch size 1.035 kg
  d90: 5.5 µm
[3]; jet mill AS200, batch size 1.073 kg
  d90: 4.4 µm
[3]; jet mill AS200, batch size 3.60 kg
  d90: 7.6 µm
[3]; [9]
  d10: 1.96±0.11 µm
  d50: 4.98±0.10 µm
  d90: 10.29±0.44 µm
[3]; [10]
  d10: 26.90±3.65 µm
  d50: 69.71±9.95 µm
  d90: 127.67±18.59 µm
[4]; 1M NaOH, 50°C, after 1 hour
  degradation under basic hydrolysis: completely degraded
[4]; 3% H2O2 solution
  time for which the stressed sample was stable: at least 24 hours
[4]; acidic condition
  stability conclusion: stable
[4]; alkaline conditions
  stability conclusion: not stable
[4]; oxidizing condition (H2O2)
  stability conclusion: stable
[4]; photolytic conditions (VIS, UV)
  stability conclusion: photo stable
[4]; sample solution, 0.1M HCl, 50°C, 24 h
  mass balance: 101.2%
[4]; sample solution, 3% H2O2, 24 h
  mass balance: 98%
[4]; solid sample, 70°C, 6 days
  mass balance: 102.6%
[4]; solid sample, UV 254 nm, 6 days, relative to t=0 unstressed sample
  mass balance: 102.4%
[4]; solid sample, daylight (VIS), 7 days, relative to t=0 unstressed sample
  mass balance: 100.2%
[4]; temperature conditions (70°C)
  stability conclusion: thermo stable
[5]
  EC50: 4 nM
[6]
  purity of the measured sample after basic hydrolysis: 89.50 % A

— patent EP3932395A1, “STABLE EMULSION CONTAINING AN ACTIVE PHARMACEUTICAL INGREDIENT BASED ON N(3-METHYL-2-OXO-2,3-DIHYDROBENZO[D]OXAZOL-5-YL)DODECANAMIDE, PRODUCTION AND USE” (Dr. August Wolff GmbH & Co. KG Arzneimittel, priority 2020, dated 2022)
